Results published in article PMC6345779, “Hypoculoside, a sphingoid base-like compound from Acremonium disrupts the membrane integrity of yeast cells” (Scientific Reports, 2019).

Tests used:
Staphylococcus aureus = tested on: Staphylococcus aureus; design: method as in PMID 23128426; details: also disrupt cell membrane; cited from earlier work
[1] = tested on: Wild type strain (BY4743); assay: Rescue of myriocin-induced growth inhibition in yeast; type: cell-based, Saccharomyces cerevisiae; details: for rescue of myriocin-induced inhibition: added at 10 μM
Protocol: Myriocin is an inhibitor of Serine palmitoyltransferase (SPT), which catalyzes the first step in the synthesis of sphingolipid biosynthesis. Addition of PHS or DHS can rescue inhibition caused by myriocin[28]. We tested whether hypoculoside can rescue the toxicity of myriocin–treated cells.
Wild type strain (BY4743) was grown in YPD medium containing different concentrations of myriocin and either phytosphingosine (PHS) or dihydrosphingosine (DHS) or hypoculoside (HYP) at the indicated concentrations. Normalized growth at the different concentrations after 24 hours of incubation at 30 °C is plotted for the various cultures.

[2] = tested on: vps35Δ, pep8Δ, vps20Δ, vps27Δ and vps36Δ strains; assay: Single-mutant sensitivity growth assay of deletion strains in YPD medium; type: cell-based, Saccharomyces cerevisiae; details: for growth of the 5 hypoculoside-sensitive mutants compared with wild type strain: 20 µM, vps35, pep8, vps20, vps27, vps36
Protocol: Figure 3 Homozygous profiling of hypoculoside in Saccharomyces cerevisiae. (A) logFC (Fitness Coefficient) was plotted against P-value for the 3702 mutants that were analyzed by HOP. The more negative the logFC value of a mutant, more sensitive is the mutant to hypoculoside. Mutants that have logFC < −0.5 and P-value < 0.05 are indicated by red dots and the remaining strains are indicated as blue dots. For the sake of clarity, gene names of only a subset of the top hits are indicated in the plot. (B) Wild type strain BY4743 and 24 deletion strains that were sensitive to hypoculoside in the HOP assay, were grown in the YPD medium in the presence of either DMSO or hypoculoside at different concentrations (0, 0.6, 1.3, 2.7 and 5.5 µM). Normalized growth at the different concentrations of hypoculoside tested after 24 hours of incubation at 30 °C is plotted for each strain.
To test the validity of our HOP data, we first identified 336 ‘hypoculoside-sensitive’ mutants (Supplementary Table S1) that had at least a 1.4-fold inhibitory effect on their growth rate (i.e. logFC ≤ −0.5) with a P-value ≤ 0.05. From the list of 336 mutants, we chose 24 mutants that represent different Gene Ontology categories (see below) and tested their sensitivity to hypoculoside. Eighteen of the total 24 mutants were sensitive to hypoculoside confirming the HOP data (Fig. 3B). We also tested mutants that were predicted to be resistant to hypoculoside (positive logFC ≥ 0.5 and P-value ≤ 0.05). But none of them were resistant to hypoculoside in comparison to wild type strain in the single-mutant sensitivity assays (data not shown).
(§1) Figure 5 Structure-activity studies of hypoculoside. (A) Wild type strain (BY4743), vps35Δ, pep8Δ, vps20Δ, vps27Δ and vps36Δ strains were grown in YPD medium in the presence of hypoculoside or hypoculine at the indicated concentrations. Normalized growth at the different concentrations of hypoculoside and hypoculine tested after 24 hours of incubation at 30 °C is plotted for each strain. (B) Wild type strain (BY4743), vps35Δ, pep8Δ, vps20Δ, vps27Δ and vps36Δ strains were grown in YPD medium in the presence of hypoculoside or phytosphingosine or dihydrosphingosine at the indicated concentrations. Normalized growth at the different concentrations of hypoculoside, phytosphingosine and dihydrosphingosine tested after 24 hours of incubation at 30 °C is plotted for each strain.

[3] = tested on: Saccharomyces cerevisiae diploid wild-type strain (BY4743); assay: Growth inhibition of wild type Saccharomyces cerevisiae in YPD medium (96-well, OD600); type: cell-based; details: for concentration that completely inhibited the growth of wild type yeast cells: 24 hours at 30 °C (Fig. 5B); for inhibitory concentration relative to inhibitory concentration of hypoculoside: wild type yeast cells, higher than hypoculoside
Protocol: as §1
Susceptibility of Candida albicans strain SC5314 to hypoculoside and amphotericin B was determined by a broth microdilution assay using Clinical Laboratory Standards Institute (CLSI) guidelines. Cells grown to exponential phase in YPD medium (1% Yeast extract, 2% Bacto peptone and 2% glucose) were harvested, washed and resuspended in RPMI 1640 medium at a density of 2×10^3 cells/mL. RPMI 1640 medium with L-glutamine without sodium bicarbonate (Sigma) was buffered with 0.165 M morpholinepropanesulfonic acid (MOPS) to a pH of 7.0. Two-fold dilutions of hypoculoside and amphotericin B were prepared such that final concentration of DMSO was 1% in all cultures. Cell suspension was distributed in microtiter plate (200 µL/well) and incubated at 35 °C with 220 rpm for 24 h. The Saccharomyces cerevisiae diploid wild-type strain (BY4743) was used for determining the Inhibitory Concentration (IC) of hypoculoside. Frozen yeast cells were allowed to recover on YPD agar plates and grown in YPD medium for nine generations (OD600 nm ≤ 2). Cells were diluted to OD600 nm of 0.0625 in YPD medium. 200 μL of the diluted yeast culture was transferred into the 96-well microtiter plate having 2-fold serially diluted concentrations of hypoculoside. Cells were incubated in a microplate reader for 16–24 hours at 30 °C with shaking. IC of hypoculoside was computed by comparing the growth of treated versus control cells.

[4] = tested on: Candida albicans strain SC5314; assay: Broth microdilution growth inhibition of Candida albicans (CLSI guidelines, OD600 after 24 h); type: cell-based; details: strain SC5314, OD600 nm after 24 hours, read-out: IC50 for inhibition of growth of C. albicans cells
Protocol: Figure 2 Hypoculoside has antifungal activity. (A) Workflow used in the purification and analysis of hypoculoside from Acremonium sp. F2434. (B) Structure of hypoculoside (8) and its aglycone derivative hypoculine (9). (C) Logarithmically growing Candida albicans cells were exposed to hypoculoside and amphotericin B at various concentrations in triplicates in a 96-well microplate. Growth of the cells was quantified by recording the absorbance at 600 nm after 24 hours. Growth (normalized with respect to DMSO-treated cells) is plotted against log of concentration of the compound. A picture of the microplate after 24 hours of incubation at 30 °C is shown in Supplementary Fig. S2A. (D) Effect of hypoculoside on the growth of Saccharomyces cerevisiae cells grown in YPD medium was analyzed in the similar way as for Candida albicans described above in C.
We evaluated the potency of hypoculoside by examining its effect on the growth of Candida albicans strain (SC5314) using the Clinical and Laboratory Standards Institute (CLSI) guidelines. We used the well-known antifungal amphotericin B as a positive control. We exposed logarithmically growing Candida albicans cells to hypoculoside and amphotericin B at various concentrations and monitored the growth by recording the OD600 nm after 24 hours. […]

fungi = tested on: fungi; design: method as in PMID 10654417; details: cited from earlier work
cancer cell lines = tested on: cancer cell lines; design: method as in PMID 18343365; details: cited from earlier work
[5] = tested on: vacuoles of wild type yeast cells; assay: FM 4-64 fluorescence microscopy of vacuolar structure; type: cell-based, Saccharomyces cerevisiae; details: 11.6 µM, FM 4-64 pre-labelled wild type cells, N = 100 cells
Protocol: As several vacuolar transport mutants were sensitive to hypoculoside (Fig. 3), we examined the effect of hypoculoside on the vacuolar structure of yeast cells. We incubated wild type yeast cells with FM 4–64, a dye that stains the vacuolar membranes, for 1 hour. We then washed off the excess FM 4–64 from the medium and transferred the cells into fresh medium with either hypoculoside or hypoculine or DMSO. […] In contrast, about 50% of 11.6 µM hypoculoside-treated cells had defective vacuoles (Fig. 7B). However, only 3% of 11.6 µM hypoculine-treated cells had defective vacuoles. Thus, the effect of hypoculoside and hypoculine on vacuolar structure correlates with their inhibitory activities.
Figure 7 Hypoculoside but not hypoculine disrupts the vacuolar structure of yeast cells. Wild type yeast cells containing vacuoles pre-labelled with the lipophilic dye FM 4-64 were exposed to either DMSO or hypoculoside or hypoculine at the indicated concentrations for 1 hour. Effects of the compounds on vacuolar morphology was analyzed by fluorescence microscopy. […] (B) Quantification of the various categories for cells treated with either DMSO or hypoculoside or hypoculine is plotted (N = 100 cells). […]
Labeling of yeast cells with FM4-64 (Invitrogen) was done as previously reported. […] The images were acquired using an inverted fluorescence microscope ZEISS LSM 5 LIVE (Carl Zeiss, Oberkochen, Germany).

BY4743 cells = assay: Propidium iodide (PI)-staining assay of plasma membrane integrity; type: cell-based, Saccharomyces cerevisiae; details: 1.8, 3.5 and 5.3 µM, 30′ and 2 hours
Protocol: Figure 8 Hypoculoside but not hypoculine disrupts the membrane integrity of yeast cells. (A) Wild type yeast cells pre-treated with either DMSO or hypoculoside (5.4 μM) were exposed to FM 4-64FX. Uptake of FM 4-64FX after 0′, 30′ and 120′ was analyzed by fluorescence microscopy of fixed cells. (B) Yeast cells were incubated with either DMSO or hypoculoside or hypoculine at different concentrations (1.8, 3.5 and 5.3 µM) for 30′ and 2 hours. They were then treated with propidium iodide (PI) and percentage of PI-staining cells was assayed by fluorescence microscopy. Representative images of cells visualized by bright field and fluorescence microscopy are shown along with quantification of PI-staining cells (N = 100 cells) in (C).
We then tested whether hypoculoside causes membrane leakage using the membrane impermeant dye propidium iodide (PI). […] We then incubated the cells with PI and visualized its uptake by fluorescence microscopy. […]
BY4743 cells (OD600 nm ≈ 1) were exposed to various concentrations of hypoculoside or hypoculine or DMSO in YPD for 30′ and 2 hours. […] PI uptake by cells was assayed by bright-field and fluorescence microscopy [Excitation/Emission (nm): 535/617] and the percentage of PI-staining cells (N ≥ 100) was calculated.

Q: For `CCCCCCCCCCCCC/C=C/[C@@H](O)[C@@H](N)CO` [sphingosine, (2S,3R,4E)-2-amino-4-octadecen-1,3-diol], which “growth inhibition of Staphylococcus aureus” value (Staphylococcus aureus) is on record?
A: inhibit the growth

Q: Which results are given for `CCCCCCCCCCCCCCC[C@@H](O)[C@@H](N)CO` [DHS, dihydrosphingosine, reference compound]?
A: growth inhibition of Staphylococcus aureus (Staphylococcus aureus): inhibit the growth; rescue of myriocin-induced inhibition [1]: completely rescued; growth of the 5 hypoculoside-sensitive mutants compared with wild type strain [2]: lower in comparison to wild type strain; concentration that completely inhibited the growth of wild type yeast cells ([3]; BY4743, YPD): 40 µM; inhibitory concentration relative to inhibitory concentration of hypoculoside [3]: about 4 fold

Q: For `C[C@@H]1[C@H](O)[C@@H](C)/C=C/C=C/C=C/C=C/C=C/C=C/C=C/[C@H](O[C@@H]2O[C@H](C)[C@@H](O)[C@H](N)[C@@H]2O)C[C@@H]2O[C@](O)(C[C@@H](O)C[C@@H](O)[C@H](O)CC[C@@H](O)C[C@@H](O)CC(=O)O[C@H]1C)C[C@H](O)[C@H]2C(=O)O` [amphotericin B, reference compound], which IC50 [4] is on record?
A: 32 nM

Q: With `C[C@@H](N)[C@H](O)CCCCCCCCCCCCCCC(=O)CCCCCCC[C@@H](O)[C@@H](N)CO` [Oceanin] as the molecule, how does the “toxicity to fungi compared with oceanapiside” value (fungi) read?
A: considerably more toxic to fungi

Q: With `CCCCCCCCCCCCCCC[C@@H](O)[C@H](C)N` [spisulosine, 1-deoxysphinganine] as the molecule, how does the “activity against cancer cell lines” value (cancer cell lines) read?
A: potent activity

Q: For `CCCCCCC(=O)CCCCCC/C=C/C[C@@H](O)[C@H](O)[C@@](N)(CO)C(=O)O` [Myriocin], which “concentration that inhibited the growth of yeast cells” value ([1]; wild type BY4743, YPD, 24 hours at 30 °C) is on record?
A: 3.11 µM

Q: With `CCCCCCCCCCCCCC[C@@H](O)[C@@H](O)[C@@H](N)CO` [PHS, phytosphingosine, reference compound] as the molecule, how does the “growth inhibition of Staphylococcus aureus” value (Staphylococcus aureus) read?
A: inhibit the growth

Q: What about the “rescue of myriocin-induced inhibition” value [1] of the same molecule?
A: completely rescued

Q: What about the “growth of the 5 hypoculoside-sensitive mutants compared with wild type strain” value [2] of the same molecule?
A: lower in comparison to wild type strain

Q: What about the “concentration that completely inhibited the growth of wild type yeast cells” value ([3]; BY4743, YPD) of the same molecule?
A: 40 µM

Q: And the “inhibitory concentration relative to inhibitory concentration of hypoculoside” value [3]?
A: about 4 fold

Q: With `CC(N)C(O)CCCCCCCCCCCCCCCCCCC(O)C(C)O` (stereo not shown) [hypoculine] as the molecule, how does the “cells with defective vacuoles” value [5] read?
A: 3%

Q: What about the “concentration at which mutants still displayed significant growth” value ([2]; mutants except for pep8 and vps35 (vps20, vps27, vps36), YPD, 24 hours at 30 °C) of the same molecule?
A: > 200 µM

Q: What about the “cells with PI staining” value (BY4743 cells) of the same molecule?
A: less than 10%

Q: What about the “concentration that inhibited the growth of wild type cells” value ([3]; BY4743, YPD, 24 hours at 30 °C (Fig. 5A)) of the same molecule?
A: > 200 µM
